Measured values reported in patent publication US20100210649A1, “PYRIDAZINONES AND FURAN-CONTAINING COMPOUNDS” (Sloan-Kettering Institute for Cancer Research, priority 2006, published 2010).
Read-outs that look alike come from different tables or passages of the source.

Key:
H1650 = experiment: Non Small Cell Lung Cancer proliferation assay (Alamar Blue reduction), H1650; type: cell-based, human; settings: Homo sapiens
In short: (§1)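 Compounds are tested at 1% DMSO final concentration against adherent NSCLC cells for 48 h at 37° C, with cytotoxicity measured by Alamar Blue reduction after a further 48 h incubation.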

H2030 = experiment: Non Small Cell Lung Cancer proliferation assay (Alamar Blue reduction), H2030; type: cell-based, human; settings: Homo sapiens
In short: as §1

H3255 = experiment: Non Small Cell Lung Cancer proliferation assay (Alamar Blue reduction), H3255; type: cell-based, human; settings: Homo sapiens
In short: as §1

H358 = experiment: Non Small Cell Lung Cancer proliferation assay (Alamar Blue reduction), H358; type: cell-based; settings: Homo sapiens, NCI-H358
In short: as §1

H1734 = experiment: Non Small Cell Lung Cancer proliferation assay (Alamar Blue reduction), H1734; type: cell-based, human; settings: Homo sapiens, NCI-H1734
In short: as §1

[1] = test system: HPL1D (human peripheral lung epithelial) cell line; experiment: Cell proliferation / dose response (Alamar Blue), HPL1D; type: cell-based; settings: HPL1D, 12 point doubling dilution 10 uM to 5 nM, 48 h treatment, alamar blue additional 48 h, read-out: IC50 HPL1D
Experimental: WI-38: human lung fibroblast cell line. […] WT: wildtype; WT*: over-expressed wildtype. Dose response studies against 34 compounds from the pyridazinone and phenylfuran-carboxamide class were conducted. […] In addition, Tarceva was included in these dose response studies. The dose response studies were done with the following standard procedure. […] The cells were incubated for 48 hours at 37 C to complete treatment, and then alamar blue was added for an additional 48 hours. Finally, alamar blue reduction was measured and the data was loaded into ORIS, our data screening acquisition platform.

H820 = experiment: Dose response study (Alamar Blue), H820; type: cell-based; settings: Homo sapiens, NCI-H820; H820; 12 point doubling dilution 10 uM to 5 nM; 48 h treatment, alamar blue additional 48 h; read-out: IC50 H820
Experimental: (§2) Dose response studies against 34 compounds from the pyridazinone and phenylfuran-carboxamide class were conducted. […] In addition, Tarceva was included in these dose response studies.
(§3) The dose response studies were done with the following standard procedure. First, the cells were counted and dispensed at 250 cells/well into 384-well microplates with compound. The cells were incubated for 48 hours at 37 C to complete treatment, and then alamar blue was added for an additional 48 hours. Finally, alamar blue reduction was measured and the data was loaded into ORIS, our data screening acquisition platform.

PC9 = experiment: Dose response study (Alamar Blue), PC9; type: cell-based; settings: Homo sapiens, PC-9; PC9; 12 point doubling dilution 10 uM to 5 nM; 48 h treatment, alamar blue additional 48 h; read-out: IC50 PC9
Experimental: as §2, §3

A549 = experiment: Dose response study (Alamar Blue), A549; type: cell-based; settings: Homo sapiens; A549; 12 point doubling dilution 10 uM to 5 nM; 48 h treatment, alamar blue additional 48 h; read-out: IC50 A549
Experimental: as §2, §3

H23 = experiment: Dose response study (Alamar Blue), H23; type: cell-based; settings: Homo sapiens, NCI-H23; H23; 12 point doubling dilution 10 uM to 5 nM; 48 h treatment, alamar blue additional 48 h; read-out: IC50 H23
Experimental: as §2, §3

H460 = experiment: Dose response study (Alamar Blue), H460; type: cell-based; settings: Homo sapiens, NCI-H460; H460; 12 point doubling dilution 10 uM to 5 nM; 48 h treatment, alamar blue additional 48 h; read-out: IC50 H460
Experimental: as §2, §3

H2122 = experiment: Dose response study (Alamar Blue), H2122; type: cell-based; settings: Homo sapiens, NCI-H2122; H2122; 12 point doubling dilution 10 uM to 5 nM; 48 h treatment, alamar blue additional 48 h; read-out: IC50 H2122
Experimental: as §2, §3

H2444 = experiment: Dose response study (Alamar Blue), H2444; type: cell-based; settings: Homo sapiens, NCI-H2444; H2444; 12 point doubling dilution 10 uM to 5 nM; 48 h treatment, alamar blue additional 48 h; read-out: IC50 H2444
Experimental: as §2, §3

[2] = NCI-H1650, 48 h, H1650, 12 point doubling dilution 10 uM to 5 nM, 48 h treatment, alamar blue additional 48 h, read-out: IC50 H1650
[3] = NCI-H1650, dose response 10 M to 5 nM, IC50, read-out: Dose Response (uM) H1650
[4] = NCI-H2030, 48 h, H2030, 12 point doubling dilution 10 uM to 5 nM, 48 h treatment, alamar blue additional 48 h, read-out: IC50 H2030
[5] = NCI-H2030, dose response 10 M to 5 nM, IC50, read-out: Dose Response (uM) H2030
[6] = NCI-H3255, 48 h, H3255, 12 point doubling dilution 10 uM to 5 nM, 48 h treatment, alamar blue additional 48 h, read-out: IC50 H3255
[7] = NCI-H3255, dose response 10 M to 5 nM, IC50, read-out: Dose Response (uM) H3255
[8] = H358, 12 point doubling dilution 10 uM to 5 nM, 48 h treatment, alamar blue additional 48 h, read-out: IC50 H358
[9] = read-out: Dose Response (uM) H358
[10] = H1734, 12 point doubling dilution 10 uM to 5 nM, 48 h treatment, alamar blue additional 48 h, read-out: IC50 H1734
[11] = read-out: Dose Response (uM) H1734

| IC50 (H1650; [2]) [µM] | IC50 (H1650; [3]) [µM] | IC50 (H2030; [4]) [µM] | IC50 (H2030; [5]) [µM] | IC50 (H3255; [6]) [µM] | IC50 (H3255; [7]) [µM] | IC50 (H358; [8]) [µM] | IC50 (H358; [9]) [µM] | IC50 (H1734; [10]) [µM] | IC50 (H1734; [11]) [µM] | IC50 (H820) [µM] | IC50 (PC9) [µM] | IC50 (A549) [µM] | IC50 (H460) [µM] | IC50 (H2122) [µM] | IC50 (H2444) [µM] | Compound | IC50 [1] [µM] | IC50 (H23) [µM] |
| --- | --- | --- | --- | --- | --- | --- | --- | --- | --- | --- | --- | --- | --- | --- | --- | --- | --- | --- |
| 1.96 | 3.52 | 0.36 | 0.72 | 1.2 | 1.34 | 0.46 | 0.24 | 3.04 | 2.41 | 0.26 | 0.85 | 1.76 | 1.63 | 1.2 | 0.37 | COc1cccc(-n2ncc(Cl)c(Cl)c2=O)c1 [compound 267061] | 0.29 | 0.28 |
| 1.91 | 2.48 | 0.54 | 0.72 | 1.51 | 1.5 | 0.66 | 0.24 | 2.89 | 1.75 | 0.45 | 1.51 | 2.81 | 2.88 | 2.55 | 0.43 | CCc1cccc(-n2ncc(Cl)c(Cl)c2=O)c1 [compound 267062] | 0.38 | 0.39 |
| > 10 | 2.83 | 7.8 | 0.88 | > 10 | 2.47 | 7.65 | 0.47 | > 10 | 1.21 | 6.72 | > 10 | > 10 | > 10 | > 10 | 6.41 | Cc1cc(-n2ncc(Cl)c(Cl)c2=O)ccc1Br [compound 267064] | 4.72 | 5.75 |
| > 10 | > 10 | > 10 | > 10 | > 10 | > 10 | > 10 | 1.24 | > 10 | > 10 | > 10 | > 10 | > 10 | > 10 | > 10 | 6.37 | Cc1cc(-n2ncc(Cl)c(Cl)c2=O)ccc1Cl [compound 267065] | 6.66 | 6.96 |
| > 10 | 1.69 | 2.34 | 1.41 | 4.61 | 1.35 | 2.81 | 0.42 | 8.85 | 1.45 | 2.8 | 5.87 | 7.52 | 6.56 | 8.72 | 1.53 | O=c1c(Cl)c(Cl)cnn1-c1ccc2c(c1)CCC2 [compound 267066] | 1.66 | 2.04 |
| > 10 | 4.47 | 9.19 | 3.04 | > 10 | 3.64 | > 10 | 1.38 | > 10 | 2.57 | 8.25 | > 10 | > 10 | > 10 | > 10 | 6.92 | Cc1nc2cc(-n3ncc(Cl)c(Cl)c3=O)ccc2s1 [compound 267067] | 7.01 | 5.68 |
| 2.26 | 2.33 | 0.47 | 1.23 | 1.23 | 1.2 | 0.78 | 0.43 | 2.83 | 2.12 | 0.32 | 0.88 | 1.93 | 1.97 | 1.59 | 0.41 | O=c1c(Cl)c(Cl)cnn1-c1ccc2c(c1)OCCO2 [compound 267068] | 0.42 | 0.29 |
| > 10 | > 10 | 4.01 | 6.83 | > 10 | 6.5 | 6.66 | 4.76 | > 10 | 6.86 | 2.57 | 6.21 | 7.39 | > 10 | 9.04 | 4.13 | O=c1c(Cl)c(Cl)cnn1Cc1ccccc1 [compound 267069] | 5.25 | 2.53 |
| > 10 | > 10 | > 10 | 5.18 | > 10 | 3.1 | > 10 | 0.97 | > 10 | 2.69 | > 10 | > 10 | > 10 | > 10 | > 10 | > 10 | Cc1ccc(-n2ncc(Cl)c(Cl)c2=O)cc1Cl [compound 267070] | > 10 | > 10 |
| 1.1 | 0.74 | 0.37 | 1.22 | 0.76 | 0.81 | 0.4 | 0.21 | 1.72 | 0.8 | 0.27 | 0.86 | 1.62 | 1.43 | 1.26 | 0.31 | Cc1cccc(-n2ncc(Br)c(Br)c2=O)c1 [compound 267071] | 0.24 | 0.26 |
| 2.09 | 0.54 | 0.85 | – | 1.64 | 1 | 0.85 | 0.15 | 3.19 | 0.51 | 0.82 | 2.59 | 3.42 | 2.76 | 4.61 | 1.05 | O=c1c(Br)c(Br)cnn1-c1cccc(C(F)(F)F)c1 [compound 267072] | 0.51 | 0.84 |
| 0.79 | 0.8 | 0.12 | 0.76 | 0.45 | 0.66 | 0.14 | 0.07 | 1.23 | 0.72 | 0.1 | 0.42 | 0.31 | 0.42 | 0.78 | 0.13 | O=c1c(Br)c(Br)cnn1-c1ccccn1 [compound 267073] | 0.11 | 0.07 |
| > 10 | 0.56 | 3.55 | 1.27 | 8.75 | – | 3.22 | 0.14 | > 10 | 0.52 | 2.68 | > 10 | > 10 | > 10 | > 10 | 4.68 | O=c1c(Cl)c(Cl)cnn1-c1ccc(Cl)cc1Cl [compound 267077] | 4.95 | 1.72 |
